Key:
[1] = Solubility in water; type: physicochemical; conditions: parent compound without salt formation or use of specialized excipients
Experimental: A red solution of Compound 3f, 1 M HCl (0.75 mL, 0.75 mmol) and ethanol (1.5 mL) was cooled to 0 deg C. under nitrogen. A solution of 0.060 g of sodium nitrite in 1 mL of water was prepared separately and 0.25 mL (0.22 mmol of sodium nitrite) was added dropwise to the solution containing compound 3f with formation of a dark red-yellow color. The diazotization was monitored using TLC with 75% ethyl acetate-hexanes. Compound 1b (0.042 g, 0.21 mmol) was added after 30 min followed by sodium bicarbonate (0.086 g, 1.0 mmol) and additional ethanol (0.3 mL). The mixture was allowed to warm to 20 deg C., treated with additional sodium bicarbonate (0.073 g, 0.87 mmol) to adjust the pH to 7-8, and allowed to stir for 12 h. The mixture was diluted with ethyl acetate (100 mL) and 0.1 M HCl (5 mL). The aqueous layer was separated and extracted with 20 mL of ethyl acetate. The combined organics were washed with saturated sodium chloride (2×20 mL), and dried over sodium sulfate. The solvent was removed under reduced pressure and the residue purified by silica gel chromatography (40% ethyl acetate-hexanes) to afford Example 3 (0.0256 g, 29% yield over 2 steps). Electrospray MS [M]− 447.2.

[2] = tested on: CD34+ CD38− human bone marrow cells; conditions: cited from earlier work

solubility [1] [µM]	Compound	expansion of multipotent progenitors ([2]; following a 14-day incubation) [fold]	enhancement of clonogenic growth ([2]; in response to KL+FL+IL-3+IL-6+EPO) [%]
140	CC1=NN(c2ccc(C)c(C)c2)C(=O)/C1=N\Nc1cccc(C2CCCC(C(=O)O)C2)c1O (stereo not drawn) [Example 3, 3-(3′-{2-[1-(3,4-dimethylphenyl)-3-methyl-5-oxo-4,5-dihydro-1H-pyrazol-4-ylidene]hydrazino}-2′-hydroxy-phenyl)cyclohexane-1-carboxylic Acid]		
	Thrombopoietin [TPO]	40	≤ 80
